Data set [1] in a line: PHH natural infection assay, cytotoxicity (Cell Counting Kit-8). The class given is cell-based. The settings on record: human. As to the method:
(§1) Detailed procedures regarding primary human hepatocyte (PHH) HBV natural infection assay are described as below. One tube of frozen PHH (10 million cells) is thawed in 37° C. water bath and then transferred to 20 mL of PHH thawing medium (Sigma, InVitroGRO HT Medium, Cat. S03319) with gently mixing. The cells were then centrifuged at […] for 5 min, the supernatant was discarded and the tube was refilled with 25 mL of PHH plating medium (Sigma, InVitroGRO CP Medium, Cat. S03317). The tube was shaken very gently to re-suspend all cells, and then 50 μL of cells were transferred to each well 384-well collagen I coated plate with appropriate liquid handling equipment, e.g. Integra VIAFLO384 or Agilent Bravo. The cells were then cultured for 24 hours in a cell incubator. For HBV infection, after PHH attachment on the culture plate, the plating medium was removed and replenished with PHH culture medium containing HBV virus. The PHH culture medium was prepared with Dulbecco's Modified Eagle Medium (DMEM)/F12 (1:1 in volume ratio) containing 10% fetal bovine serum (Gibco, Cat. 10099141), 5 ng/mL human epidermal growth factor (Gibco, Cat.PHG0311L), 20 ng/mL dexamethasone (Sigma, Cat.D4902-100 mg), 250 ng/mL human recombinant insulin (Gibco, Cat.41400045) and 100 U/mL penicillin. HBV virus at 200 genome equivalent (GE) per cell with 4% PEG8000 (Sigma, Cat.P1458) containing culture medium were added to the PHH culture medium for infection. The cells were then cultured for 24 hours in cell incubator. Then the cell culture supernatant was removed. The HBV-infected PHH were cultured with sandwich culture method with PHH culture medium containing 1% DMSO and 0.25 mg/mL matrix gel for 72 hours. The supernatant was then refreshed with PHH culture medium containing different concentrations of testing compounds for two times with 72-hour interval. At the end of treatment, the supernatant was collected for viral markers measurements, including HBsAg, HBeAg, HBV DNA and cytotoxicity. HBsAg and HBeAg were detected using alphalisa method using their specific antibodies. For HBV DNA detection, HBV DNA Quantitative Fluorescence Diagnostic Kit (Sansure Biotech Inc.) was used following the manufacture's protocol. Cytotoxicity was determined using Cell Counting Kit-8 (CCK8, Dojindo Molecular Technologies, Inc.).
(In general: Formazan colour is commonly taken as a measure of viable cells.)

Data set [2] concerns HBsAg. As to the kind of experiment: PHH natural infection assay, HBsAg (alphalisa). The class given is cell-based, HBV. Conditions: Hepatitis B virus, read-out: HBsAg IC50. As to the method:
as §1
(§2) The compounds of the present invention were tested for their capacity to inhibit HBsAg and HBeAg as described herein.
(In general: Alpha assays give light when donor and acceptor beads are brought close together.)

Data set [3] concerns HBeAg. Nature of the data set: PHH natural infection assay, HBeAg (alphalisa). The format is cell-based, HBV. Conditions: Hepatitis B virus, read-out: HBeAg IC50. Here is the method: as §1, §2

A value given as a limit tells only on which side of the number the result lay.

What is called CC50 is the concentration at which the toxic effect on the cells reaches its halfway point. In general, IC50 refers to the midpoint of a concentration-inhibition curve.

`CC(O)C(=O)Nc1ccc(-c2nc3cccc(F)c3o2)cc1` (stereo not drawn) [Example 24, N-[4-(7-fluoro-1,3-benzoxazol-2-yl)phenyl]-2-hydroxy-propanamide] returned a CC50 at 144 h in data set [1] greater than 100000 nM. The IC50 in data set [2] turned out to be 940 nM; in data set [3] it was 1800 nM.
For `O=C(Nc1ccc(-c2nc3cccc(F)c3o2)cc1)C1CCC1` [Example 25, N-[4-(7-fluoro-1,3-benzoxazol-2-yl)phenyl]cyclobutanecarboxamide] the same measures were greater than 100000 nM, 950 nM and 720 nM.
As for `CC(=O)OC1(C(=O)Nc2ccc(-c3nc4cccc(F)c4o3)cc2)CCOCC1` [Example 26, [4-[[4-(7-fluoro-1,3-benzoxazol-2-yl)phenyl]carbamoyl]tetrahydropyran-4-yl] acetate], it took 73500 nM to reach half-maximal cytotoxicity in data set [1] (CC50 at 144 h). Further, the IC50 was found to be 1080 nM in data set [2] and 840 nM in data set [3].
The matching figures for `O=C(Nc1ccc(-c2nc3cccc(F)c3o2)cc1)C1CC1(F)F` (stereo not drawn) [Example 27, 2,2-difluoro-N-[4-(7-fluoro-1,3-benzoxazol-2-yl)phenyl]cyclopropanecarboxamide]: greater than 100000 nM, 1100 nM and 710 nM.
The matching figures for `O=C(Nc1ccc(-c2nc3cccc(F)c3o2)cc1)C1CCOCC1` [Example 28, N-[4-(7-fluoro-1,3-benzoxazol-2-yl)phenyl]tetrahydropyran-4-carboxamide]: greater than 100000 nM, 960 nM and 1000 nM.
For `O=C(Nc1ccc(-c2nc3cccc(F)c3o2)cc1)C1COC1` [Example 29, N-[4-(7-fluoro-1,3-benzoxazol-2-yl)phenyl]oxetane-3-carboxamide], the CC50 at 144 h in data set [1] is greater than 100000 nM. The values for the IC50 in data set [2] and in data set [3] were 1380 nM and 1450 nM, respectively.
Consider `O=C(Nc1ccc(-c2nc3cccc(F)c3o2)cc1)C1CCSCC1` [Example 30, N-[4-(7-fluoro-1,3-benzoxazol-2-yl)phenyl]tetrahydrothiopyran-4-carboxamide], for which the CC50 at 144 h in data set [1] is greater than 100000 nM. The IC50 in data set [2] was found to be 1490 nM; in data set [3], 1470 nM.
In turn, `O=C(Nc1ccc(-c2nc3cccc(F)c3o2)cc1)C1CS(=O)(=O)C1` [Example 31, N-[4-(7-fluoro-1,3-benzoxazol-2-yl)phenyl]-1,1-dioxo-thietane-3-carboxamide] came in with a CC50 at 144 h in data set [1] greater than 100000 nM. Also, the IC50 in data set [2] is 1500 nM; in data set [3], 2290 nM.
The matching figures for `CC1(C(=O)Nc2ccc(-c3nc4cccc(F)c4o3)cc2)CC1` [Example 32, N-[4-(7-fluoro-1,3-benzoxazol-2-yl)phenyl]-1-methyl-cyclopropanecarboxamide]: greater than 100000 nM, 1520 nM and 1160 nM.
For `O=C(Nc1ccc(-c2nc3cccc(F)c3o2)cc1)C1C2COCC21` (stereo not drawn) [Example 33, N-[4-(7-fluoro-1,3-benzoxazol-2-yl)phenyl]-3-oxabicyclo[3.1.0]hexane-6-carboxamide] the same measures were greater than 100000 nM, 1580 nM and 1090 nM.
The matching figures for `CC1(C(=O)Nc2ccc(-c3nc4cccc(F)c4o3)cc2)CCC1` [Example 34, N-[4-(7-fluoro-1,3-benzoxazol-2-yl)phenyl]-1-methyl-cyclobutanecarboxamide]: greater than 100000 nM, 1610 nM and 1760 nM.
The compound `CC1(C(=O)Nc2ccc(-c3nc4cccc(F)c4o3)cc2)CCCO1` (stereo not drawn) [Example 35, N-[4-(7-fluoro-1,3-benzoxazol-2-yl)phenyl]-2-methyl-tetrahydrofuran-2-carboxamide] showed a CC50 at 144 h in data set [1] greater than 100000 nM. The IC50 stood at 1670 nM in data set [2] and 1850 nM in data set [3].
The matching figures for `CC(=O)OC1(C(=O)Nc2ccc(-c3nc4cccc(F)c4o3)cc2)CC1` [Example 36, [1-[[4-(7-fluoro-1,3-benzoxazol-2-yl)phenyl]carbamoyl]cyclopropyl] acetate]: greater than 100000 nM, 2740 nM and 2610 nM.
For `O=C(Nc1ccc(-c2nc3cccc(F)c3o2)cc1)OC1CCOC1` (stereo not drawn) [Example 37, tetrahydrofuran-3-yl N-[4-(7-fluoro-1,3-benzoxazol-2-yl)phenyl]carbamate] the same measures were greater than 100000 nM, 3430 nM and 4300 nM.
For `COC(=O)C12CC(C(=O)Nc3ccc(-c4nc5cccc(F)c5o4)cc3)(C1)C2` [Example 38, methyl 3-[[4-(7-fluoro-1,3-benzoxazol-2-yl)phenyl]carbamoyl]bicyclo[1.1.1]pentane-1-carboxylate] the same measures were greater than 100000 nM, 3740 nM and 3940 nM.
As to `CCC1(C(=O)Nc2ccc(-c3nc4cccc(F)c4o3)cc2)COC1` [Example 39, 3-ethyl-N-[4-(7-fluoro-1,3-benzoxazol-2-yl)phenyl]oxetane-3-carboxamide], the CC50 at 144 h in data set [1] was greater than 100000 nM. The IC50 came to 6290 nM in data set [2] and 9010 nM in data set [3].
The matching figures for `O=C(Nc1ccc(-c2nc3c(F)cccc3o2)cc1)c1ncco1` [Example 40, N-[4-(4-fluoro-1,3-benzoxazol-2-yl)phenyl]oxazole-2-carboxamide]: greater than 100000 nM, 170 nM and 330 nM.
The matching figures for `Cc1cnc(C(=O)Nc2ccc(-c3nc4c(F)cccc4o3)cc2)o1` [Example 41, N-[4-(4-fluoro-1,3-benzoxazol-2-yl)phenyl]-5-methyl-oxazole-2-carboxamide]: greater than 100000 nM, 420 nM and 520 nM.
Turning to `O=C(Nc1ccc(-c2nc3c(F)cccc3o2)cc1)c1ccccn1` [Example 42, N-[4-(4-fluoro-1,3-benzoxazol-2-yl)phenyl]pyridine-2-carboxamide], the CC50 at 144 h in data set [1] was greater than 100000 nM. Moreover, the IC50 in data set [2] came out at 460 nM; in data set [3], 520 nM.
For `Cc1coc(C(=O)Nc2ccc(-c3nc4c(F)cccc4o3)cc2)n1` [Example 43, N-[4-(4-fluoro-1,3-benzoxazol-2-yl)phenyl]-4-methyl-oxazole-2-carboxamide] the same measures were greater than 100000 nM, 1090 nM and 1070 nM.
For `O=C(Nc1ccc(-c2nc3c(F)cccc3o2)cc1)c1nccs1` [Example 44, N-[4-(4-fluoro-1,3-benzoxazol-2-yl)phenyl]thiazole-2-carboxamide] the same measures were greater than 100000 nM, 1330 nM and 1280 nM.
For `Cc1ncc(C(=O)Nc2ccc(-c3nc4c(F)cccc4o3)cc2)o1` [Example 45, N-[4-(4-fluoro-1,3-benzoxazol-2-yl)phenyl]-2-methyl-oxazole-5-carboxamide] the same measures were greater than 100000 nM, 1360 nM and 1350 nM.
Turning to `O=C(Nc1ccc(-c2nc3c(F)cccc3o2)cc1)c1cccnc1` [Example 46, N-[4-(4-fluoro-1,3-benzoxazol-2-yl)phenyl]pyridine-3-carboxamide], the CC50 at 144 h in data set [1] is greater than 100000 nM. The results for the IC50 in data set [2] and in data set [3] were 2230 nM and 4530 nM, respectively.

The values above are taken from patent US20230286930A1, “N -SUBSTITUTED 4-(1,3-ARYLOXAZOLO-2-YL)PHENYL COMPOUNDS FOR THE TREATMENT AND PROPHYLAXIS OF HEPATITIS B VIRUS INFECTION” (Hoffmann-La Roche Inc., priority 2020, published 2023).
